This note sets out measurements from ChEMBL document CHEMBL1148961, “10-membered macrolides from the insect pathogenic fungus Cordyceps militaris BCC 2816” (J Nat Prod, 2004).

Each structure is given as a SMILES string. Converted amounts (≈) assume the structure as drawn. The source made the active and inactive calls. No cut-off for these calls is given here.

The first assay relates to Plasmodium falciparum. Description: Antimalarial activity against multidrug-resistant Plasmodium falciparum K1 at <20 ug/mL after 24 hrs by [3H]hypoxanthine uptake. The class given is functional, organism-based.
For the compound `CO[C@@H]1CC(=O)CC[C@@H](C)OC(=O)C[C@@H]1O`, the outcome was inactive.

Regarding `CO[C@H]1CC(=O)CC[C@@H](C)OC(=O)C[C@@H]1O`, the result was inactive.

As to `C[C@@H]1CC[C@@H](O)/C=C/[C@@H](O)CC(=O)O1`, the result was inactive.

For `C[C@@H]1CCC(=O)C[C@H](O)[C@@H](O)CC(=O)O1`, the outcome was inactive.

The test system of the next assay is Plasmodium falciparum. Description: Antimalarial activity against multidrug-resistant Plasmodium falciparum K1 after 24 hrs by [3H]hypoxanthine uptake. The class given is functional, organism-based.
A word on the IC50: it is the concentration that gives 50% inhibition. A low value points to higher potency. `Nc1ncnc2c1ncn2[C@@H]1O[C@H](CO)C[C@H]1O` [CORDYCEPIN] returned a concentration for half-maximal inhibition (IC50) of 4.5 µg/mL (≈ 17.9 µM).

The compound `C[C@H]1[C@@H](O)O[C@@H]2O[C@@]3(C)CC[C@H]4[C@H](C)CC[C@@H]1[C@@]24OO3` [ARTENIMOL] registered a half-inhibitory concentration (IC50) of 0.0012 µg/mL (≈ 0.00422 µM). Against the preceding compound, the IC50 is about 3800-fold lower.
